Source: patent US6534638B1, “Recombinant DNA molecules encoding aminopeptidase enzymes and their use in the preparation of vaccines against helminth infections” (priority 1992, dated 2003)
Where two headings read alike, the source gives them in different places.

Experiments:
[1] = system: H110D aminopeptidase A-like activity; assay: Inhibitor sensitivity of ConA H110D, α-glutamic acid-pNA substrate; assay type: biochemical, Haemonchus contortus
Text: (§1) α-amino acylpeptide hydrolase (microsomal) aminopeptidase activities in H110D preparations were characterised by assays, in solution, using L-leucine, methionine, phenylalanine, α-glutamic acid and lysine p-nitroanilides (pNA). All the amino acid p-nitroanilide substrates (except α-glutamic acid) were obtained from Sigma, Poole, Dorset UK, α-glutamic acid was from Fluka, Dorset, UK. Single hydrophobic (leucine- or phenylalanine-) and charged (α-glutamic acid-) amino acid pNA known to be substrates for mammalian aminopeptidase-M (ApM) and -A (ApA) respectively, were chosen to measure the effect of enzyme inhibitors and serum inhibition on H110D aminopeptidase activities.
(§2) Micro-ELISA plate (Dynatech Immulon 1, Virginia, USA) wells were each filled with 250 μl of either 50 mM HEPES or MOPS pH 7 plus 1-10 μl of the fraction to be assayed. The plates were then pre-incubated at 37° C. for 10 minutes prior to the addition of 10 μl of 25 mM amino acid p-nitroanilide substrate per well. The time zero optical density (OD) at 405 nm was then measured using an ELISA plate reader and the plates were then incubated at 37° C. for 15-30 minutes. The final OD reading was then taken as before and the OD change per minute per milligram of protein calculated.
(§3) The method used for the enzyme assay was as described in (a) above except that the inhibitors were added to the 250 μl of buffer plus 10 μl of 1 mg/ml ConA H110D and pre-incubated for 10 minutes at 37° C. prior to addition of the substrates (leucine-pNA or α-glutamic acid-pNA). The percentage inhibition was calculated as follows [formula]
(§4) Where x=the ΔOD/min of the enzyme with no inhibitor added and y=ΔOD/min of the enzyme plus inhibitor. Nine compounds with differing enzyme class inhibition were tested individually: Amastatin, Bestatin (metalloprotease, aminopeptidase), 1,10 phenanthroline, EDTA (metalloprotease), phosphoramidon (metalloprotease, thermolysin, collagenase), Aproptinin (serine protease), Pepstatin (aspartic protease), PMSF (serine and cysteine protease) and E64 (cysteine protease). Amastatin, bestatin, 1,10 phenanthroline, PMSF and pepstatin were obtained from Sigma, Dorset, UK. All the other inhibitors were obtained from Boehringer-Mannheim. Each inhibitor was used at two concentrations equal to or greater than the maximum concentrations recommended by Boehringer-Mannheim.

[2] = system: H110D aminopeptidase M-like activity; assay type: biochemical, Haemonchus contortus
Text: as §1, §2, §3
as §4, with “Boehringer-Mannheim.” for “Boehringer-Mannheim. Each inhibitor was used at two concentrations equal to or greater than the maximum concentrations recommended by Boehringer-Mannheim.”

SMILES	PERCENTAGE INHIBITION α-glutamic acid-p-nitroanilide substrate ([1]; inhibitor 1 mM) [%]	PERCENTAGE INHIBITION α-glutamic acid-p-nitroanilide substrate ([1]; inhibitor 10 mM) [%]	Ranking of inhibitors of H110D aminopeptidase activities ([2]; 5 mM)	PERCENTAGE INHIBITION Leucine-p-nitroanilide substrate ([2]; inhibitor 1 mM, ConA H110D) [%]	PERCENTAGE INHIBITION Leucine-p-nitroanilide substrate ([2]; inhibitor 10 mM, ConA H110D) [%]	PERCENTAGE INHIBITION α-glutamic acid-p-nitroanilide substrate ([1]; inhibitor 10 μM) [%]	PERCENTAGE INHIBITION α-glutamic acid-p-nitroanilide substrate ([1]; inhibitor 50 μM) [%]	PERCENTAGE INHIBITION Leucine-p-nitroanilide substrate ([2]; inhibitor 10 μM, ConA H110D) [%]	PERCENTAGE INHIBITION Leucine-p-nitroanilide substrate ([2]; inhibitor 50 μM, ConA H110D) [%]	PERCENTAGE INHIBITION α-glutamic acid-p-nitroanilide substrate ([1]; inhibitor 100 μM) [%]	Reduction of activity against leucine-p-nitroanilide ([2]; ConA H110D, concentration recommended by the supplier)	PERCENTAGE INHIBITION Leucine-p-nitroanilide substrate ([2]; inhibitor 100 μM, ConA H110D) [%]
c1cnc2c(c1)ccc1cccnc12 [1, 10 phenanthroline, 1,10 phenanthroline]	78	85	most effective inhibitor	78	87	–	–	–	–	–	–	–
CC(C)C[C@@H](N)[C@H](O)C(=O)N[C@H](C(=O)N[C@H](C(=O)N[C@@H](CC(=O)O)C(=O)O)C(C)C)C(C)C [Amastatin]	–	–	–	–	–	0	0	61	66	–	–	–
CC(C)C[C@H](NC(=O)[C@@H](O)[C@H](N)Cc1ccccc1)C(=O)O [Bestatin]	–	–	–	–	–	–	23	–	63	35	approximately 70%	68
O=C(O)CN(CCN(CC(=O)O)CC(=O)O)CC(=O)O [EDTA, ethylenediaminetetraacetic acid]	17	21	–	8	16	–	–	–	–	–	–	–
CC(C)C[C@H](NP(=O)(O)O[C@@H]1O[C@@H](C)[C@H](O)[C@@H](O)[C@H]1O)C(=O)N[C@@H](Cc1c[nH]c2ccccc12)C(=O)O [Phosphoramidon, phosphoramidon]	–	–	–	–	–	1	1	0.8	7	–	–	–
